Experimental data: the supplement of paper PMC11451515

Legend:
Settings in all cases: 48 h
P12-Ichikawa [1] = assay: cell viability relative to DMSO control; higher = less cytotoxic
In short: (§1)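 NOMO1 or SEM (500 cells/well) or P12-Ichikawa (1000 cells/well) leukemia cells were adapted for at least four passages in each medium. They were seeded in 1536-well plates (5 μl) and pin-dosed with library compounds in DMSO over an 11-point threefold series, 47 μM to 0.79 nM. CellTiter-Glo One luminescence was read after 48 h at 37°C. Viability is the per-plate percentage relative to DMSO wells, with cell-free wells as background.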

SEM cells [2] = assay: as above
In short: as §1

NOMO1 [3] = assay: AUC of viability dose-response curve (% viability x log10 dose units); higher = less sensitive
In short: (§2)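 Medium-adapted leukemia cells in 1536-well plates, at 500 or 1000 cells/well, were incubated for 48 h at 37°C with library compounds in DMSO at 11 threefold doses from 47 μM to 0.79 nM. CellTiter-Glo One luminescence normalised per plate to DMSO and cell-free wells was fitted with a four-parameter log-logistic model over log10 doses. Area under the curve was integrated from this fit by trapezoidal rule, with curves beyond full viability scaled and failed quality-control curves removed.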

P12-Ichikawa [4] = assay: as above
In short: as §2

SEM cells [5] = assay: as above
In short: as §2

NOMO1 [6] = assay: cell viability relative to DMSO control; higher = less cytotoxic
In short: as §1

[7] = HPLM + 10% dialyzed FBS, 0.000781 µM
[8] = HPLM + 10% dialyzed FBS, 0.00234 µM
[9] = HPLM + 10% dialyzed FBS, 0.00702 µM
[10] = HPLM + 10% dialyzed FBS, 0.0211 µM
[11] = HPLM + 10% dialyzed FBS, 0.0632 µM
[12] = HPLM + 10% dialyzed FBS, 0.19 µM
[13] = HPLM + 10% dialyzed FBS, 0.569 µM
[14] = HPLM + 10% dialyzed FBS, 1.71 µM
[15] = HPLM + 10% dialyzed FBS, 5.12 µM
[16] = HPLM + 10% dialyzed FBS, 15.4 µM
[17] = HPLM + 10% dialyzed FBS, 46.1 µM
[18] = RPMI 5 mM glucose + 10% dialyzed FBS
[19] = RPMI 5 mM glucose + 10% FBS, 0.000781 µM
[20] = RPMI 5 mM glucose + 10% FBS, 0.00234 µM
[21] = RPMI 5 mM glucose + 10% FBS, 0.00702 µM
[22] = RPMI 5 mM glucose + 10% FBS, 0.0211 µM
[23] = RPMI 5 mM glucose + 10% FBS, 0.0632 µM
[24] = RPMI 5 mM glucose + 10% FBS, 0.19 µM
[25] = RPMI 5 mM glucose + 10% FBS, 0.569 µM
[26] = RPMI 5 mM glucose + 10% FBS, 1.71 µM
[27] = RPMI 5 mM glucose + 10% FBS, 5.12 µM
[28] = RPMI 5 mM glucose + 10% FBS, 15.4 µM
[29] = RPMI 5 mM glucose + 10% FBS, 46.1 µM
[30] = RPMI 5 mM glucose + 10% dialyzed FBS, 0.000781 µM
[31] = RPMI 5 mM glucose + 10% dialyzed FBS, 0.00234 µM
[32] = RPMI 5 mM glucose + 10% dialyzed FBS, 0.00702 µM
[33] = RPMI 5 mM glucose + 10% dialyzed FBS, 0.0211 µM
[34] = RPMI 5 mM glucose + 10% dialyzed FBS, 0.0632 µM
[35] = RPMI 5 mM glucose + 10% dialyzed FBS, 0.19 µM
[36] = RPMI 5 mM glucose + 10% dialyzed FBS, 0.569 µM
[37] = RPMI 5 mM glucose + 10% dialyzed FBS, 1.71 µM
[38] = RPMI 5 mM glucose + 10% dialyzed FBS, 5.12 µM
[39] = RPMI 5 mM glucose + 10% dialyzed FBS, 15.4 µM
[40] = RPMI 5 mM glucose + 10% dialyzed FBS, 46.1 µM

CNNCc1ccc(C(=O)NC(C)C)cc1
cell viability (P12-Ichikawa [1]; [7]): 118% | cell viability (P12-Ichikawa [1]; [8]): 123% | cell viability (P12-Ichikawa [1]; [9]): 125% | cell viability (P12-Ichikawa [1]; [10]): 136% | cell viability (P12-Ichikawa [1]; [11]): 124% | cell viability (P12-Ichikawa [1]; [12]): 137% | cell viability (P12-Ichikawa [1]; [13]): 135% | cell viability (P12-Ichikawa [1]; [14]): 144% | cell viability (P12-Ichikawa [1]; [15]): 133% | cell viability (P12-Ichikawa [1]; [16]): 119% | cell viability (P12-Ichikawa [1]; [17]): 99.7% | cell viability (SEM cells [2]; [7]): 102% | cell viability (SEM cells [2]; [8]): 118% | cell viability (SEM cells [2]; [9]): 130% | cell viability (SEM cells [2]; [10]): 117% | cell viability (SEM cells [2]; [11]): 139% | cell viability (SEM cells [2]; [12]): 133% | cell viability (SEM cells [2]; [13]): 107% | cell viability (SEM cells [2]; [14]): 132% | cell viability (SEM cells [2]; [15]): 83.7% | cell viability (SEM cells [2]; [16]): 92.1% | cell viability (SEM cells [2]; [17]): 40.7% | AUC of viability dose-response curve (NOMO1 [3]; HPLM + 10% dialyzed FBS): 465 | AUC of viability dose-response curve (NOMO1 [3]; RPMI 5 mM glucose + 10% FBS): 468 | AUC of viability dose-response curve (NOMO1 [3]; [18]): 468 | AUC of viability dose-response curve (P12-Ichikawa [4]; HPLM + 10% dialyzed FBS): 467 | AUC of viability dose-response curve (P12-Ichikawa [4]; RPMI 5 mM glucose + 10% FBS): 464 | AUC of viability dose-response curve (P12-Ichikawa [4]; [18]): 466 | AUC of viability dose-response curve (SEM cells [5]; HPLM + 10% dialyzed FBS): 434 | AUC of viability dose-response curve (SEM cells [5]; RPMI 5 mM glucose + 10% FBS): 452 | AUC of viability dose-response curve (SEM cells [5]; [18]): 448

O=C1c2c(O)cc(O)cc2O[C@H](c2cc(O)c(O)c(O)c2)[C@H]1O
AUC of viability dose-response curve (NOMO1 [3]; HPLM + 10% dialyzed FBS): 430 | AUC of viability dose-response curve (NOMO1 [3]; RPMI 5 mM glucose + 10% FBS): 461 | AUC of viability dose-response curve (NOMO1 [3]; [18]): 453 | AUC of viability dose-response curve (P12-Ichikawa [4]; HPLM + 10% dialyzed FBS): 456 | AUC of viability dose-response curve (P12-Ichikawa [4]; RPMI 5 mM glucose + 10% FBS): 452 | AUC of viability dose-response curve (P12-Ichikawa [4]; [18]): 455 | AUC of viability dose-response curve (SEM cells [5]; HPLM + 10% dialyzed FBS): 426 | AUC of viability dose-response curve (SEM cells [5]; RPMI 5 mM glucose + 10% FBS): 410 | AUC of viability dose-response curve (SEM cells [5]; [18]): 420

CCOC(=O)C(C)(C)Oc1ccc(Cl)cc1
AUC of viability dose-response curve (NOMO1 [3]; HPLM + 10% dialyzed FBS): 464 | AUC of viability dose-response curve (NOMO1 [3]; RPMI 5 mM glucose + 10% FBS): 453 | AUC of viability dose-response curve (NOMO1 [3]; [18]): 453 | AUC of viability dose-response curve (P12-Ichikawa [4]; HPLM + 10% dialyzed FBS): 459 | AUC of viability dose-response curve (P12-Ichikawa [4]; RPMI 5 mM glucose + 10% FBS): 464 | AUC of viability dose-response curve (P12-Ichikawa [4]; [18]): 461 | AUC of viability dose-response curve (SEM cells [5]; HPLM + 10% dialyzed FBS): 465 | AUC of viability dose-response curve (SEM cells [5]; RPMI 5 mM glucose + 10% FBS): 471 | AUC of viability dose-response curve (SEM cells [5]; [18]): 476

CCN1\C=C(C(O)=O)/C(=O)C2=C1C=C(N3CCN(C)CC3)C(=C2)F
cell viability (NOMO1 [6]; [19]): 97.7% | cell viability (NOMO1 [6]; [20]): 104% | cell viability (NOMO1 [6]; [21]): 106% | cell viability (NOMO1 [6]; [22]): 108% | cell viability (NOMO1 [6]; [23]): 106% | cell viability (NOMO1 [6]; [24]): 113% | cell viability (NOMO1 [6]; [25]): 107% | cell viability (NOMO1 [6]; [26]): 104% | cell viability (NOMO1 [6]; [27]): 82% | cell viability (NOMO1 [6]; [28]): 71% | cell viability (NOMO1 [6]; [29]): 51.9% | cell viability (NOMO1 [6]; [30]): 123% | cell viability (NOMO1 [6]; [31]): 112% | cell viability (NOMO1 [6]; [32]): 112% | cell viability (NOMO1 [6]; [33]): 154% | cell viability (NOMO1 [6]; [34]): 157% | cell viability (NOMO1 [6]; [35]): 77% | cell viability (NOMO1 [6]; [36]): 71.9% | cell viability (NOMO1 [6]; [37]): 47.7% | cell viability (NOMO1 [6]; [38]): 57.6% | cell viability (NOMO1 [6]; [39]): 58.5% | cell viability (NOMO1 [6]; [40]): 32.6% | cell viability (P12-Ichikawa [1]; [7]): 117% | cell viability (P12-Ichikawa [1]; [8]): 118% | cell viability (P12-Ichikawa [1]; [9]): 114% | cell viability (P12-Ichikawa [1]; [10]): 107% | cell viability (P12-Ichikawa [1]; [11]): 116% | cell viability (P12-Ichikawa [1]; [12]): 113% | cell viability (P12-Ichikawa [1]; [13]): 108% | cell viability (P12-Ichikawa [1]; [14]): 105% | cell viability (P12-Ichikawa [1]; [15]): 90.7% | cell viability (P12-Ichikawa [1]; [16]): 77.5% | cell viability (P12-Ichikawa [1]; [17]): 71.5% | cell viability (P12-Ichikawa [1]; [19]): 110% | cell viability (P12-Ichikawa [1]; [20]): 116% | cell viability (P12-Ichikawa [1]; [21]): 117% | cell viability (P12-Ichikawa [1]; [22]): 108% | cell viability (P12-Ichikawa [1]; [23]): 117% | cell viability (P12-Ichikawa [1]; [24]): 120% | cell viability (P12-Ichikawa [1]; [25]): 108% | cell viability (P12-Ichikawa [1]; [26]): 112% | cell viability (P12-Ichikawa [1]; [27]): 84% | cell viability (P12-Ichikawa [1]; [28]): 73.9% | cell viability (P12-Ichikawa [1]; [29]): 69.1% | cell viability (P12-Ichikawa [1]; [30]): 110% | cell viability (P12-Ichikawa [1]; [31]): 121% | cell viability (P12-Ichikawa [1]; [32]): 112% | cell viability (P12-Ichikawa [1]; [33]): 121% | cell viability (P12-Ichikawa [1]; [34]): 109% | cell viability (P12-Ichikawa [1]; [35]): 123% | cell viability (P12-Ichikawa [1]; [36]): 108% | cell viability (P12-Ichikawa [1]; [37]): 104% | cell viability (P12-Ichikawa [1]; [38]): 83.1% | cell viability (P12-Ichikawa [1]; [39]): 69.1% | cell viability (P12-Ichikawa [1]; [40]): 61.9% | cell viability (SEM cells [2]; [7]): 107% | cell viability (SEM cells [2]; [8]): 112% | cell viability (SEM cells [2]; [9]): 98.6% | cell viability (SEM cells [2]; [10]): 117% | cell viability (SEM cells [2]; [11]): 104% | cell viability (SEM cells [2]; [12]): 115% | cell viability (SEM cells [2]; [13]): 129% | cell viability (SEM cells [2]; [14]): 105% | cell viability (SEM cells [2]; [15]): 109% | cell viability (SEM cells [2]; [16]): 110% | cell viability (SEM cells [2]; [17]): 96.7% | cell viability (SEM cells [2]; [19]): 108% | cell viability (SEM cells [2]; [20]): 112% | cell viability (SEM cells [2]; [21]): 128% | cell viability (SEM cells [2]; [22]): 116% | cell viability (SEM cells [2]; [23]): 107% | cell viability (SEM cells [2]; [24]): 120% | cell viability (SEM cells [2]; [25]): 105% | cell viability (SEM cells [2]; [26]): 117% | cell viability (SEM cells [2]; [27]): 108% | cell viability (SEM cells [2]; [28]): 107% | cell viability (SEM cells [2]; [29]): 103% | cell viability (SEM cells [2]; [30]): 107% | cell viability (SEM cells [2]; [31]): 114% | cell viability (SEM cells [2]; [32]): 108% | cell viability (SEM cells [2]; [33]): 107% | cell viability (SEM cells [2]; [34]): 95.6% | cell viability (SEM cells [2]; [35]): 108% | cell viability (SEM cells [2]; [36]): 106% | cell viability (SEM cells [2]; [37]): 83.6% | cell viability (SEM cells [2]; [38]): 106% | cell viability (SEM cells [2]; [39]): 109% | cell viability (SEM cells [2]; [40]): 91.8% | AUC of viability dose-response curve (P12-Ichikawa [4]; HPLM + 10% dialyzed FBS): 437 | AUC of viability dose-response curve (P12-Ichikawa [4]; RPMI 5 mM glucose + 10% FBS): 437 | AUC of viability dose-response curve (P12-Ichikawa [4]; [18]): 426 | AUC of viability dose-response curve (SEM cells [5]; HPLM + 10% dialyzed FBS): 472 | AUC of viability dose-response curve (SEM cells [5]; RPMI 5 mM glucose + 10% FBS): 458 | AUC of viability dose-response curve (SEM cells [5]; [18]): 450
